Assay results: patent publication US11352350B2, “IRAK degraders and uses thereof” (Kymera Therapeutics, Inc., priority 2018, dated 2022)
Where two headings read alike, the source gives them in different places.

How the values were obtained:
IRAK4 = IRAK4 (Homo sapiens (Human), UniProt Q9NWZ3); assay: IRAK4 MSD degradation in OCI-LY10; format: cell-based
Outline: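 OCI-LY10 cells treated with 8-point 1:3 dilutions (top 1 to 10 μM final) for 4 to 24 h at 37° C. Lysate IRAK4 measured by MSD sandwich immunoassay (2H9 capture, Y279 detection, SULFO-TAG anti-rabbit). DC50 from three-parameter logistic fit.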

OCI-LY10 = assay: CTG Cell Viability Assay - OCI-LY10; format: cell-based, human; conditions: OCI-LY10, 4 days, read-out: CTG Cell Viability Assay - OCI-LY10: Average external-IC50
Outline: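 OCI-LY10 cells exposed to 9-dose, 1:3 dilutions from 10 μM top (0.2% DMSO) for 4 days at 37° C, 5% CO2. Viability by CellTiter-Glo luminescence; IC50 from three-parameter logistic fit.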

[1] = OCI-LY10, 4 hrs, MSD, read-out: IRAK4 MSD degradation in OCI-LY10 at 4 hrs: Average external-Abs DC50
[2] = OCI-LY10, 24 hrs, MSD, read-out: IRAK4 MSD degradation in OCI-LY10 at 24 hrs: Average external-Abs DC50
[3] = OCI-LY10, 4 hrs, read-out: IRAK4 MSD degradation in OCI-LY10 at 4 hrs: DC50
[4] = OCI-LY10, 24 hrs, read-out: IRAK4 MSD degradation in OCI-LY10 at 24 hrs: DC50

Sequence of IRAK4 (Q9NWZ3 whole entry): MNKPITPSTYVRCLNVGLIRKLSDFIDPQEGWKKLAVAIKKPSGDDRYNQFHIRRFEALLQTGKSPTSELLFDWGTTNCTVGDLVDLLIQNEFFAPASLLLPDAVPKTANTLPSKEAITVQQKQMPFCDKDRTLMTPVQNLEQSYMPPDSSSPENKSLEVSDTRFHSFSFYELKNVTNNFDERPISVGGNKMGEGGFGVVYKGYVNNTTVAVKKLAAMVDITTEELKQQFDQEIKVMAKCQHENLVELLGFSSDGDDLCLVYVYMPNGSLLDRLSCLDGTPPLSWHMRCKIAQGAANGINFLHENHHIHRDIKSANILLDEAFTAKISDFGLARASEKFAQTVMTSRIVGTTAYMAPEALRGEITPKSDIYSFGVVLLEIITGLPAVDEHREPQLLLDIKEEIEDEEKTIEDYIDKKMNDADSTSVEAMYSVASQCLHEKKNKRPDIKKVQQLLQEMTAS

| Compound | DC50 (IRAK4; [1]) [nM] | IC50 (OCI-LY10) [nM] | DC50 (IRAK4; [2]) [nM] | IC50 (OCI-LY10; Homo sapiens, OCI-Ly10, 96 h) [nM] | DC50 (IRAK4; [3]) [nM] | DC50 (IRAK4; [4]) [nM] |
| --- | --- | --- | --- | --- | --- | --- |
| CN(C[C@@H]1CN(CCCCc2cccc3c2C(=O)N(C2CCC(=O)NC2=O)C3=O)CCO1)C[C@H]1CC[C@H](n2cc(NC(=O)c3coc(-c4ccnc(NCC5CC5)c4)n3)c(C(F)F)n2)CC1 (stereo partly drawn) [I-343] | 10 to 100 | < 50 |  |  |  |  |
| Cn1c(=O)n(C2CCC(=O)NC2=O)c2cccc(CCCOC3CCN([C@H]4CC[C@H](Nc5ncnc6ccc(C#N)cc56)CC4)CC3)c21 (stereo partly drawn) [I-304, 4-[[4-[4-[3-[1-(2,6-dioxo-3-piperidyl)-3-methyl-2-oxo-benzimidazol-4-yl]propoxy]-1-piperidyl]cyclohexyl]amino] quinazoline-6-carbonitrile] | > 1000 |  | > 1000 | > 1000 |  |  |
| CN(CC1CCC(n2cc(NC(=O)c3cnn4ccc(C5CCOCC5)nc34)c(C(F)F)n2)CC1)[C@H]1CC[C@H](Nc2cccc3c2C(=O)N(C2CCC(=O)NC2=O)C3=O)CC1 (stereo partly drawn) [I-478] |  |  |  | > 1000 | 100 to 1000 | 10 to 100 |
| O=C1CCC(N2C(=O)c3cccc(N4CCC(CCN5CCC(n6cc(NC(=O)c7cnn8ccc(N9CCOCC9)nc78)c(C(F)F)n6)CC5)CC4)c3C2=O)C(=O)N1 (stereo not drawn) [I-227] | 100 to 1000 |  |  | < 50 |  |  |
| CN(CC1CC1)c1ccn2ncc(C(=O)Nc3cn([C@H]4CC[C@H](CN(C)[C@H]5CC[C@H](Nc6cccc7c6C(=O)N(C6CCC(=O)NC6=O)C7=O)CC5)CC4)nc3C(F)F)c2n1 (stereo partly drawn) [I-455] |  |  |  | 50 to 100 | 10 to 100 | 10 to 100 |
| CN(C[C@H]1CC[C@H](n2cc(NC(=O)c3cnn4ccc(N5CCOCC5)nc34)c(C(F)F)n2)CC1)[C@H]1CC[C@H](Nc2cccc3c2C(=O)N(C2CCC(=O)NC2=O)C3=O)CC1 (stereo partly drawn) [I-355] | 10 to 100 |  | < 10 | 100 to 500 |  |  |
| Cn1c(=O)n(C2CCC(=O)NC2=O)c2cccc(CCCOC3CCN(C[C@H]4CC[C@H](n5cc(NC(=O)c6cnn7ccc(N8C[C@H](N)CC(F)(F)C8)nc67)c(C(F)F)n5)CC4)CC3)c21 (stereo partly drawn) [I-303, 5-[(5R)-5-amino-3,3-difluoro-1-piperidyl]-N-[3-(difluoromethyl)-1-[4-[[4-[3-[1-(2,6-dioxo-3-piperidyl)-3-methyl-2-oxo-benzimidazol-4-yl]propoxy]-1-piperidyl]methyl]cyclohexyl]pyrazol-4-yl] pyrazolo [1,5-a] pyrimidine-3-carboxamide] | 10 to 100 |  |  | > 1000 |  |  |
| CN(CCCOCCc1ccc2c(c1)n(C)c(=O)n2C1CCC(=O)NC1=O)C[C@H]1CC[C@H](n2cc(NC(=O)c3coc(-c4ccnc(NCC5CC5)c4)n3)c(C(F)F)n2)CC1 (stereo partly drawn) [I-129] | < 10 |  |  | > 1000 |  |  |
| NC(=O)c1nn([C@H]2CC[C@H](C(=O)NCCOCCOCCNc3cccc4c3C(=O)N(C3CCC(=O)NC3=O)C4=O)CC2)cc1NC(=O)c1coc(-c2ccnc(NCC(F)(F)F)c2)n1 (single isomer, unassigned) [I-13, N-(3-carbamoyl-1-((1r,4r)-4-((2-(2-(2-((2-(2,6-dioxopiperidin-3-yl)-1,3-dioxoisoindolin-4-yl)amino)ethoxy)ethoxy)ethyl)carbamoyl)cyclohexyl)-1H-pyrazol-4-yl)-2-(2-((2,2,2-trifluoroethyl)amino)pyridin-4-yl)oxazole-4-carboxamide] | > 1000 |  |  | > 1000 |  |  |
| CN(CCCOCCCc1cccc2c1n(C)c(=O)n2[C@H]1CCC(=O)NC1=O)C[C@H]1CC[C@H](n2cc(NC(=O)c3coc(-c4ccnc(NCC5CC5)c4)n3)c(C(F)F)n2)CC1 (single isomer, unassigned) [I-306] | < 10 |  |  | > 1000 |  |  |
| Cn1c(=O)n(C2CCC(=O)NC2=O)c2cccc(CCCOCC3CCN(C[C@H]4CC[C@H](n5cc(NC(=O)c6cnn7ccc(N8CCOCC8)nc67)c(C(F)F)n5)CC4)CC3)c21 (stereo partly drawn) [I-198] | < 10 |  |  | > 1000 |  |  |
| CN(CC1CCN(c2cccc3c2C(=O)N(C2CCC(=O)NC2=O)C3=O)CC1)C[C@H]1CC[C@H](n2cc(NC(=O)c3cnn4ccc(N5CCOCC5)nc34)c(C(F)F)n2)CC1 (stereo partly drawn) [I-220] | > 1000 |  | 100 to 1000 | > 1000 |  |  |
| O=C1CCC(N2C(=O)c3cccc(NCCCOC[C@H]4CN(C[C@H]5CC[C@H](n6cc(NC(=O)c7cnn8ccc(N9CCOCC9)nc78)c(C(F)F)n6)CC5)CCO4)c3C2=O)C(=O)N1 (stereo partly drawn) [I-332] | 100 to 1000 |  | 10 to 100 | 100 to 500 |  |  |
| Cn1c(=O)n(C2CCC(=O)NC2=O)c2ccc(CCCOCCOCCOCCOCC(=O)N3CCN([C@H]4CC[C@H](Nc5ncnn6ccc(C7CCOCC7)c56)CC4)CC3)cc21 (stereo partly drawn) [I-20] | > 1000 |  | > 1000 | > 1000 |  |  |
| O=C1CCC(N2C[C@@H](c3ccc(C#CCCOC4CCN(C[C@H]5CC[C@H](n6cc(NC(=O)C7CNN8C=CC(N9CCOCC9)=NC78)c(C(F)F)n6)CC5)CC4)cc3)OC2=O)C(=O)N1 (stereo partly drawn) [I-197] | 10 to 100 |  |  | > 1000 |  |  |
| O=C1CCC(N2C(=O)c3cccc(NCCc4ccc(CCNC[C@H]5CC[C@H](n6cc(NC(=O)c7cnn8ccc(N9C[C@H]%10C[C@@H]9CO%10)nc78)c(C(F)F)n6)CC5)cc4)c3C2=O)C(=O)N1 (stereo partly drawn) [I-346, N-[3-(difluoromethyl)-1-[4-[[2-[4-[2-[[2-(2,6-dioxo-3-piperidyl)-1,3-dioxo-isoindolin-4-yl]amino]ethyl]phenyl]ethylamino]methyl]cyclohexyl]pyrazol-4-yl]-5-[(1R,4R)-2-oxa-5-azabicyclo[2.2.1]heptan-5-yl]pyrazolo[1,5-a]pyrimidine-3-carboxamide] | > 1000 |  |  | < 50 |  |  |
| O=C1CCC(N2C(=O)c3cccc(NCc4ccc(CN5CCN(C[C@H]6CC[C@H](n7cc(NC(=O)c8cnn9ccc(N%10CCOCC%10)nc89)c(C(F)F)n7)CC6)CC5)cc4)c3C2=O)C(=O)N1 (stereo partly drawn) [I-356] | > 1000 |  | 10 to 100 | < 50 |  |  |
| O=C1CCC(N2C(=O)c3cccc(CCCOC4CCN(C[C@H]5CC[C@H](n6cc(NC(=O)c7cnn8ccc(N9CCOCC9)nc78)c(C(F)F)n6)CC5)CC4)c3C2=O)C(=O)N1 (stereo partly drawn) [I-207] | 10 to 100 |  |  | > 1000 |  |  |
| CN1C(=O)C(C2CCC(=O)NC2=O)c2cccc(CCCOC3CCN(C[C@H]4CC[C@H](n5cc(NC(=O)c6cnn7ccc(N8CC[C@H](O)C8)nc67)c(C(F)F)n5)CC4)CC3)c21 (stereo partly drawn) [I-282] | < 10 |  |  | > 1000 |  |  |
| CN(CCCOCCCc1cccc2c1C(=O)N(C1CCC(=O)NC1=O)C2=O)C[C@H]1CC[C@H](n2cc(NC(=O)c3coc(-c4ccnc(NCC5CC5)c4)n3)c(C(F)F)n2)CC1 (stereo partly drawn) [I-167] | 100 to 1000 |  |  | 100 to 500 |  |  |
| O=C1CCC(N2C(=O)c3cccc(NCC4CC5(C4)CN(C[C@H]4CC[C@H](n6cc(NC(=O)c7cnn8ccc(N9C[C@H]%10C[C@@H]9CO%10)nc78)c(C(F)F)n6)CC4)C5)c3C2=O)C(=O)N1 (stereo partly drawn) [I-461] |  |  |  | < 50 | 100 to 1000 |  |
| CN1C(=O)CCC(N2Cc3c(OCc4ccc(CN5CCN(C[C@H]6CC[C@H](n7cc(NC(=O)c8cnn9ccc(N%10CCOCC%10)nc89)c(C(F)F)n7)CC6)CC5)cc4)cccc3C2=O)C1=O (stereo partly drawn) [I-322] | 100 to 1000 |  | > 1000 | > 1000 |  |  |
| C[C@@H](CCNc1cccc2c1C(=O)N(C1CCC(=O)NC1=O)C2=O)OC1CCN(C[C@H]2CC[C@H](n3cc(NC(=O)c4cnn5ccc(N6C[C@H]7C[C@@H]6CO7)nc45)c(C(F)F)n3)CC2)CC1 (stereo partly drawn) [I-551] |  |  |  | < 50 | 100 to 1000 |  |
| Cc1nc2cccc(OCCCOC3CCN(C[C@H]4CC[C@H](n5cc(NC(=O)c6cnn7ccc(N8CCOCC8)nc67)c(C(F)F)n5)CC4)CC3)c2c(=O)n1C1CCC(=O)NC1=O (stereo partly drawn) [I-215] | > 1000 |  | > 1000 | > 1000 |  |  |
| Cn1c(=O)n(C2CCC(=O)NC2=O)c2cccc(CCCOC3CCN(C[C@H]4CC[C@H](n5cc(NC(=O)c6cnn7ccc(N[C@@H]8CCCC[C@H]8O)nc67)c(C(F)F)n5)CC4)CC3)c21 (stereo partly drawn) [I-293] | 10 to 100 |  |  | > 1000 |  |  |
| Cn1c(=O)n(C2CCC(=O)NC2=O)c2cccc(CCCOCC3CCN(C[C@H]4CC[C@H](n5cc(NC(=O)c6coc(-c7ccnc(NCC8CC8)c7)n6)c(C(F)F)n5)CC4)CC3)c21 (stereo partly drawn) [I-120] | < 10 |  |  | > 1000 |  |  |
| Cn1c(=O)n(C2CCC(=O)NC2=O)c2cccc(CN3CCC(N(C)[C@H]4CC[C@H](Oc5ncnc6ccc(C#N)cc56)CC4)CC3)c21 (stereo partly drawn) [I-270] | > 1000 |  | > 1000 | > 1000 |  |  |
| Cn1c(=O)n(C2CCC(=O)NC2=O)c2cccc(C3CCN(C[C@H]4CC[C@H](n5cc(NC(=O)c6cnn7ccc(N8CCOCC8)nc67)c(C(F)F)n5)CC4)CC3)c21 (stereo partly drawn) [I-199] | 100 to 1000 |  |  | > 1000 |  |  |
| CC[C@@H]1[C@H](F)C(=O)N[C@@H]1COc1ccc(C#C[C@H]2CC[C@H](CN3CCC4(CC3)CC(CNc3cccc5c3C(=O)N(C3CCC(=O)NC3=O)C5=O)C4)CC2)c2cc(C(N)=O)c(OC)cc12 (stereo partly drawn) [I-372] | > 1000 |  |  | < 50 |  |  |
